According to ChEMBL document CHEMBL1201862, “PubChem BioAssay data set” (2004):
Each block holds one compound with its values, some of them ahead of it. Calls of active or inactive are those of the source.

How the values were obtained:
[1] = biological target: T1, Zinc finger protein mex-5 (Caenorhabditis elegans, UniProt Q9XUB2); assay: potency of MEX-5 RNA-binding blockers – biochemical, C. elegans, fluorescence polarization, dose response (AID 1960)
T1 sequence (Q9XUB2 whole entry): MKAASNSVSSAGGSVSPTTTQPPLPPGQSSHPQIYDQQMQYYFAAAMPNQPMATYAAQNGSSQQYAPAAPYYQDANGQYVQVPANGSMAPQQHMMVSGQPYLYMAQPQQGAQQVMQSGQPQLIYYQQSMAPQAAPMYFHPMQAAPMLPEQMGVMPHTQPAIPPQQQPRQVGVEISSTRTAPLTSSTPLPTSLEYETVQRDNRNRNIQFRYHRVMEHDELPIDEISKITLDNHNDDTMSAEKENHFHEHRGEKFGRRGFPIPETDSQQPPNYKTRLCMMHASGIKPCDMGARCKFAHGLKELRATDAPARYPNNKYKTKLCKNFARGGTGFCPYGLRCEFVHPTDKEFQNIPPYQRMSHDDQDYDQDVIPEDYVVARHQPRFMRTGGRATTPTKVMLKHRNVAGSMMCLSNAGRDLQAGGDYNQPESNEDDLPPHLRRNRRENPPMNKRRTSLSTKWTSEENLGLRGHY

Protein skinhead-1 = biological target: T2, Protein skinhead-1 (Caenorhabditis elegans, UniProt P34707); format: functional
T2 sequence (P34707 whole entry): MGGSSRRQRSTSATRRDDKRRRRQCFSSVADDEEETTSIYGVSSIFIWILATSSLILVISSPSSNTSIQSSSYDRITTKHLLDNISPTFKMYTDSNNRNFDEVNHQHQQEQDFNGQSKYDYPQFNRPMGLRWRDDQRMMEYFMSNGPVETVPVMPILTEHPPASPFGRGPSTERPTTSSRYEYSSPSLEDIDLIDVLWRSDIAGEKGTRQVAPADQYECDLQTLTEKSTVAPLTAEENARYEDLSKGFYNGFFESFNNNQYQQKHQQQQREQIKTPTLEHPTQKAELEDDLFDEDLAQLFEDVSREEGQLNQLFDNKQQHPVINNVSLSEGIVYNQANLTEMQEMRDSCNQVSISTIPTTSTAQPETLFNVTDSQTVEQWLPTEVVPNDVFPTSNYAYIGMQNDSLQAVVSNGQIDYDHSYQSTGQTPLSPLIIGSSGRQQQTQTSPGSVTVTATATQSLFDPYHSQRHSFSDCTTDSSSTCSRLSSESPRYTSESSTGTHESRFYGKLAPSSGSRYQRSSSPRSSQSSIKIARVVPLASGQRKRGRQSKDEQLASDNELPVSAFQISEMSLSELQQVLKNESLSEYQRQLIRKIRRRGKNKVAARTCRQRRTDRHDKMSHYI

[2] = biological target: T3, Sentrin-specific protease 8 (Homo sapiens, UniProt Q96LD8); assay: inhibition of human SENP8 cleavage activity – biochemical, luminescence, SAR follow-up (AID 504501); format: functional
T3 sequence (Q96LD8 whole entry): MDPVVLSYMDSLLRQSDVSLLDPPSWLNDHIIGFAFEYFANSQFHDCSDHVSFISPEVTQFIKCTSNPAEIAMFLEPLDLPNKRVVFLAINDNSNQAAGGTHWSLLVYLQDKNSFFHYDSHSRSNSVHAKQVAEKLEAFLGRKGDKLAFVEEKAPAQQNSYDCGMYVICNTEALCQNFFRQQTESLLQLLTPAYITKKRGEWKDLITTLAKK

[3] = biological target: T4, Sentrin-specific protease 6 (Homo sapiens, UniProt Q9GZR1); assay: SAR Analysis of small molecule inhibitors of Sentrin-specific protease 6 (SENP6) using a Luminescent assay. [Related pubchem assays (depositor defined):AID2582, AID2599]; format: functional
T4 sequence (Q9GZR1 whole entry): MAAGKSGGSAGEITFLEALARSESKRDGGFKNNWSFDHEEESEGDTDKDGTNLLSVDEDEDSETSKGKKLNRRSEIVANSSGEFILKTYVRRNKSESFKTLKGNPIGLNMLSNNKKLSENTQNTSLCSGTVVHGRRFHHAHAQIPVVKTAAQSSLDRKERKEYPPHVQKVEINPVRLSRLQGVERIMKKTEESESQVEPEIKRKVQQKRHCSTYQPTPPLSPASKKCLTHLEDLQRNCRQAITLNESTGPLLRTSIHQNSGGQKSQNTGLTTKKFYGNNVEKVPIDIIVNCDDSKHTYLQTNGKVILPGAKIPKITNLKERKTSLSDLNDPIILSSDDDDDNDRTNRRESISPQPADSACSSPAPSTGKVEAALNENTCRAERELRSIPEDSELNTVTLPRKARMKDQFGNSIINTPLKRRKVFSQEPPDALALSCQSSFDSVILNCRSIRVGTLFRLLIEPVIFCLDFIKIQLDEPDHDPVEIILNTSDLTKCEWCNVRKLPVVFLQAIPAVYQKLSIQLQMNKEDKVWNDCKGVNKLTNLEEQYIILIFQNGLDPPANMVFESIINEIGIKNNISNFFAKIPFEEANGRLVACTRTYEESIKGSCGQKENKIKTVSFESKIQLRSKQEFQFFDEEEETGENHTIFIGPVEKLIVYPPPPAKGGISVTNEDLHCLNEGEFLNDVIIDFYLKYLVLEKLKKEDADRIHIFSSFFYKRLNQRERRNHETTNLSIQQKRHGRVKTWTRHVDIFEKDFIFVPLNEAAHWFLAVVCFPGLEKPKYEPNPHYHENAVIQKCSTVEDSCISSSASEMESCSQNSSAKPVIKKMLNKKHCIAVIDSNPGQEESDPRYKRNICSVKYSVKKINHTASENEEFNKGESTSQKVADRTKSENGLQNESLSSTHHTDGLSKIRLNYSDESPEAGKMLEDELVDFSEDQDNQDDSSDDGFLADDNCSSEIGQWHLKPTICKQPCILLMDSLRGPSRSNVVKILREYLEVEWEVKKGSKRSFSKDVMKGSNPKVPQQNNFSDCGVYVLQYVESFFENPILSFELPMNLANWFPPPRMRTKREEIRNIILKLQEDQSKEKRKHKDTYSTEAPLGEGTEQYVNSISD

[4] = biological target: High affinity nerve growth factor receptor (Homo sapiens, UniProt P04629); format: functional;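 note: NTRK1 tested as one member of a kinome-wide profiling panel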
Sequence of High affinity nerve growth factor receptor (P04629 whole entry): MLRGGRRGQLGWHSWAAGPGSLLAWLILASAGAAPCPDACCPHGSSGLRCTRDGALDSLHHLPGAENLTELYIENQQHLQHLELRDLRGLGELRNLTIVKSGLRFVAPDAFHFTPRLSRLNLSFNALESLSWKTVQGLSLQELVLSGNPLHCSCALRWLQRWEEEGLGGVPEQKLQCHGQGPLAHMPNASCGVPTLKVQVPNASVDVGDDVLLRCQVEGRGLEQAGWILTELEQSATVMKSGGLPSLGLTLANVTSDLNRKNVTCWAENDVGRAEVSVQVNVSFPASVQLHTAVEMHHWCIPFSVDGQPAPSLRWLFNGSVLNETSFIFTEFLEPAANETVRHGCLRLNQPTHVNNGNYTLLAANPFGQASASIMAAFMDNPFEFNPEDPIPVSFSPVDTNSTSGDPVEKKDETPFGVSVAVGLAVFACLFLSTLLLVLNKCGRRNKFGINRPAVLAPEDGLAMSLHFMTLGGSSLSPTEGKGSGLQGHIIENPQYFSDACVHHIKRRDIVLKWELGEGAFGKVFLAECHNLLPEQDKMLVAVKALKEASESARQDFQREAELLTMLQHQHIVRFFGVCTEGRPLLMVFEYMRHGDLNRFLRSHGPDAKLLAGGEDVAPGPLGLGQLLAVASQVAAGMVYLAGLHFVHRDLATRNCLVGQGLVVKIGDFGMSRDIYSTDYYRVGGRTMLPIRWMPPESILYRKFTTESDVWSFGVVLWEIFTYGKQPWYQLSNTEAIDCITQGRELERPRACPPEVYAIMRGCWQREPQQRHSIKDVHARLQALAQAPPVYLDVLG

[5] = biological target: Serine/threonine-protein kinase BRSK1 (Homo sapiens, UniProt Q8TDC3); format: functional;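 note: measured within a kinome-wide kinase panel, with the target listed as KIAA1811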
Sequence of Serine/threonine-protein kinase BRSK1 (Q8TDC3 whole entry): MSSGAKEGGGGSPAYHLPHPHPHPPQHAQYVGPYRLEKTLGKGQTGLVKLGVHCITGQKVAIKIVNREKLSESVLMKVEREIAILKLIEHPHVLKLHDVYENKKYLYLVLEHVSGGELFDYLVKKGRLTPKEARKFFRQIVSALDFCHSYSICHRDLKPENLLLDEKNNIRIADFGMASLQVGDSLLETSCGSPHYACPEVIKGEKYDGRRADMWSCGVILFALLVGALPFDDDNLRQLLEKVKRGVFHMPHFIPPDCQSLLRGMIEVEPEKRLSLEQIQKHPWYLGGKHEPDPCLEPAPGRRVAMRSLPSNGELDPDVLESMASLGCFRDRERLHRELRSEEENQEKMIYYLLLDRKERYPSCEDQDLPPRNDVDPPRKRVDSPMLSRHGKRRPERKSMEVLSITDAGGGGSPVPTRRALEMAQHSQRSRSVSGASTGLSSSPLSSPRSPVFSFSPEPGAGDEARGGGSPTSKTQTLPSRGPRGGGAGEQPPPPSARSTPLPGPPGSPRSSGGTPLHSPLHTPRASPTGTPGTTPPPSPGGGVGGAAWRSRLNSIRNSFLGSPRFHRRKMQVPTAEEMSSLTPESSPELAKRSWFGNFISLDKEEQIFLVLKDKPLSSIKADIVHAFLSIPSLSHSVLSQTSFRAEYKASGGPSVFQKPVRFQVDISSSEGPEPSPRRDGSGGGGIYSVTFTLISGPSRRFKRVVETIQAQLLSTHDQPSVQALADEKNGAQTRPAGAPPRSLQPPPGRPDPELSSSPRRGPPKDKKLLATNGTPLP

[6] = biological target: Cyclin-dependent kinase 9 (Homo sapiens, UniProt P50750); format: functional;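 note: value from the CDK9 entry of a kinome-spanning kinase panel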
Sequence of Cyclin-dependent kinase 9 (P50750 whole entry): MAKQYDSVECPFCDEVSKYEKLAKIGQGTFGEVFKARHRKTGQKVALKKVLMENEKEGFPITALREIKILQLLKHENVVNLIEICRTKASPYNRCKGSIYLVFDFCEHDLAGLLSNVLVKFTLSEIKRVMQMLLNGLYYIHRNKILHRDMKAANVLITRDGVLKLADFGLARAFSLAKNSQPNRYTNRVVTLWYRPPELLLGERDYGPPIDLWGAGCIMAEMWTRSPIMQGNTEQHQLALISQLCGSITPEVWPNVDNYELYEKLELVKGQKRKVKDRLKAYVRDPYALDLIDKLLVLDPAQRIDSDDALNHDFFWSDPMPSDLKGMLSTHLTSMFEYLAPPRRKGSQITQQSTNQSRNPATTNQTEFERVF

[7] = biological target: Fibroblast growth factor receptor 1 (Homo sapiens, UniProt P11362); format: functional
Sequence of Fibroblast growth factor receptor 1 (P11362 whole entry): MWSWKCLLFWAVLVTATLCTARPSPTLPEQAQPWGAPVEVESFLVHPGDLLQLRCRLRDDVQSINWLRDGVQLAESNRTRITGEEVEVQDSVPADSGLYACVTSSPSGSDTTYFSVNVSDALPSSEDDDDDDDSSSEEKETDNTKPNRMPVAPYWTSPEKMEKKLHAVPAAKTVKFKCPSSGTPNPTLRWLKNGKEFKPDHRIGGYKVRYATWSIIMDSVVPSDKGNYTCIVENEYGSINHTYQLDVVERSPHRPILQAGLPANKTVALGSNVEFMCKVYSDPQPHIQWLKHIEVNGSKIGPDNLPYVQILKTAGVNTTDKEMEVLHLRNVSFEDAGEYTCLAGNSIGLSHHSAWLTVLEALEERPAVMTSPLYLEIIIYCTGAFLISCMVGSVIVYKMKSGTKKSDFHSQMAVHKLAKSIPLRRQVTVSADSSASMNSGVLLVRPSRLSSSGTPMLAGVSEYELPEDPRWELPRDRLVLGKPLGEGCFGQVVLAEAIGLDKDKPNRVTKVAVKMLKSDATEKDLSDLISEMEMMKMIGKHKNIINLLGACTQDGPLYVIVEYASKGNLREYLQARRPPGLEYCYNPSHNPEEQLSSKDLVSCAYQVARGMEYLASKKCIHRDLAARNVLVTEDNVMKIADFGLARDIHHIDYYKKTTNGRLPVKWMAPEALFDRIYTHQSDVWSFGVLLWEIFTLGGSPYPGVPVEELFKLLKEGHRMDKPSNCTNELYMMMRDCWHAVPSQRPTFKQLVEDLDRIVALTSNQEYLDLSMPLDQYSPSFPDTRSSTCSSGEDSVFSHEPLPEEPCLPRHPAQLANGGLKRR

[8] = biological target: Ribosomal protein S6 kinase alpha-3 (Homo sapiens, UniProt P51812); format: functional;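 note: measured within a kinome-wide profiling panel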
Sequence of Ribosomal protein S6 kinase alpha-3 (P51812 whole entry): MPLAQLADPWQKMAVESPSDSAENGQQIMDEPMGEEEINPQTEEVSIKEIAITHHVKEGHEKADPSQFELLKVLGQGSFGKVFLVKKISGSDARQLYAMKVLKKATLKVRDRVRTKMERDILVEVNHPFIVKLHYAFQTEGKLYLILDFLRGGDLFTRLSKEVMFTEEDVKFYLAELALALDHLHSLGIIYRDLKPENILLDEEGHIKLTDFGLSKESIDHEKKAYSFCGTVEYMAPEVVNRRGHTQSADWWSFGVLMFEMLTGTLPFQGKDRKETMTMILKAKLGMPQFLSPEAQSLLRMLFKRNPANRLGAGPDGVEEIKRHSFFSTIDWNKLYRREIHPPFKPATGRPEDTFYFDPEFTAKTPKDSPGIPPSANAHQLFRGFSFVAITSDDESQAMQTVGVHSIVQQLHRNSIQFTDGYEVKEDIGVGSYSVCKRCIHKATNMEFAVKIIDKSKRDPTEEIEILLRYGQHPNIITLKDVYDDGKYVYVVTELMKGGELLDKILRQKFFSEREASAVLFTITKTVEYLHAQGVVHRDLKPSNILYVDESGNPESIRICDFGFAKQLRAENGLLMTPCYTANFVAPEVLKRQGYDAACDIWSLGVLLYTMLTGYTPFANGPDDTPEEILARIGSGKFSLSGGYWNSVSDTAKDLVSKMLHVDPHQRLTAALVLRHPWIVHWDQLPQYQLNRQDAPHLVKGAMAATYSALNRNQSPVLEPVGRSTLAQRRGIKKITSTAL

[9] = biological target: Receptor tyrosine-protein kinase erbB-4 (Homo sapiens, UniProt Q15303); format: functional;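 note: ERBB4 member of a kinome-wide kinase profiling panel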
Sequence of Receptor tyrosine-protein kinase erbB-4 (Q15303 whole entry): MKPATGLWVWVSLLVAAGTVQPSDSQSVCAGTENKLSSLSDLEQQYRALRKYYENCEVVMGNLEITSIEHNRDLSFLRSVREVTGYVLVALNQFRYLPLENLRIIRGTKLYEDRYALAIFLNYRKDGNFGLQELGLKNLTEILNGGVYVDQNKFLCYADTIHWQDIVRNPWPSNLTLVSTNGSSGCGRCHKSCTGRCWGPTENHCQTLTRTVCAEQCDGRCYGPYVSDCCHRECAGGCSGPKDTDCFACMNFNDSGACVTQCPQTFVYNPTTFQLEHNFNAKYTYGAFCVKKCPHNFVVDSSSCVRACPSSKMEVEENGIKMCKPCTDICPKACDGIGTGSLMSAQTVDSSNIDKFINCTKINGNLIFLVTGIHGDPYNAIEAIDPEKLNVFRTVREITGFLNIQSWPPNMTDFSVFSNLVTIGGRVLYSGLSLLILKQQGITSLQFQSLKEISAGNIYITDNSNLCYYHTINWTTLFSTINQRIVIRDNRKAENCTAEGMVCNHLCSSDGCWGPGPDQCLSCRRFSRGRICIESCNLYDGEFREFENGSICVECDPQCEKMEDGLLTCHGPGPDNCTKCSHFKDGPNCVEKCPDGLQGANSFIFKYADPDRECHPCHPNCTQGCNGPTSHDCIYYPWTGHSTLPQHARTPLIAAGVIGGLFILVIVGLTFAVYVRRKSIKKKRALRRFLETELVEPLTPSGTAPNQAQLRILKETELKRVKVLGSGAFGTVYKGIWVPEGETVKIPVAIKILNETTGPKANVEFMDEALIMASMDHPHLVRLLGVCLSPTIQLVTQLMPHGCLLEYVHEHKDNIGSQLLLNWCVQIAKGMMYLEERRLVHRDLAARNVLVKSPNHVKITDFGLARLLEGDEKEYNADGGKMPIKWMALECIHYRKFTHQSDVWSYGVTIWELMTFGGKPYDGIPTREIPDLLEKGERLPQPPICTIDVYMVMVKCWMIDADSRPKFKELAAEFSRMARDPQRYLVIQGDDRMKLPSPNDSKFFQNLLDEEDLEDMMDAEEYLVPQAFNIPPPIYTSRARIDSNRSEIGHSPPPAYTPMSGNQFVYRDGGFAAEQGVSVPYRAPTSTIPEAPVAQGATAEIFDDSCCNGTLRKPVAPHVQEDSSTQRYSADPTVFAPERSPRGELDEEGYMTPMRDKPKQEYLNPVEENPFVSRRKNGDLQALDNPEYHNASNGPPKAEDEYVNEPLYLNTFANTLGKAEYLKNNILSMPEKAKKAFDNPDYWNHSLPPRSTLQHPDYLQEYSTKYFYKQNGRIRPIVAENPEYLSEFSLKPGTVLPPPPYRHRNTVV

Compound: O=C(O)C1Nc2c(O)cc(Cl)c([N+](=O)[O-])c2C2C=CCC12 (stereo unspecified)
EC50 [1]: 19.1 µM (inconclusive)

Compound: Clc1ccc2nc(-c3ccc(Br)s3)cn2c1
IC50 (Protein skinhead-1): 57.5 µM (inactive)

Compound: O=C(CCc1ccccc1)NNc1cc(N2CCCCC2)nc(N2CCCCC2)n1
IC50 [2]: > 99 µM (inactive)
IC50 [3]: 35.7 µM (active)

Ki [4]: > 2.51 µM (inactive)
Ki [5]: 1.58 µM (active)
Ki [6]: 0.0631 µM (active)
pKi [6]: 7.2
Ki [7]: 5.01 µM (active)
Ki [8]: 0.0158 µM (active)
Ki [9]: > 3.98 µM (inactive)
Compound: Cc1n[nH]c2ccc(-c3cncc(OCC(N)Cc4cccc(Cl)c4)c3)cc12 (stereo unspecified)
